According to ChEMBL document CHEMBL2062434, “Isolation and structural elucidation of cyclic tetrapeptides from Onychocola sclerotica” (J Nat Prod, 2012):
Where a SMILES comes first, the peptide text is derived from it. [ ]: non-standard residue; d: D form. NMeF = CN[C@@H](Cc1ccccc1)C(=O)O

Key:
[1] = Inhibition of human voltage-dependent L-type calcium channel subunit alpha1C/alpha2delta/beta2a expressed in C1-6-37-3 cells assessed as inhibition of K+-induced calcium influx incubated for 30 mins prior to K+-induction by Fluo-4-AM based FLIPR assay; format: cell-based
[2] = Cytotoxicity against human Fa2N-4 cells after 24 hrs by MTT assay; format: cell-based; conditions: Fa2N-4, 24 h

Row | IC50 [1] [µM] | Structure (SMILES) | IC50 [2] [µM]
1 | 0.9 | COc1ccc(CCN(C)CCCC(C#N)(c2ccc(OC)c(OC)c2)C(C)C)cc1OC (centres undefined) | –
2 | 2.2 | COc1ccc([C@@H]2Sc3ccccc3N(CCN(C)C)C(=O)[C@@H]2OC(C)=O)cc1 [DILTIAZEM] | –

Second part, the compound before the results:

Row | Structure (SMILES) | IC50 [1] [µM] | IC50 [2] [µM]
3 | CC[C@H](C)[C@@H]1NC(=O)[C@H](Cc2ccccc2)N(C)C(=O)[C@H]([C@@H](C)CC)NC(=O)[C@H](Cc2ccccc2)N(C)C1=O (cyclo(I[NMeF]I[NMeF])) | 5 | > 20
4 | CC[C@H](C)[C@@H]1NC(=O)[C@H](Cc2ccccc2)N(C)C(=O)[C@H](C(C)C)NC(=O)[C@H](Cc2ccccc2)N(C)C1=O (cyclo(I[NMeF]V[NMeF])) | 7.1 | > 20
5 | CC(C)[C@@H]1NC(=O)[C@H](Cc2ccccc2)N(C)C(=O)[C@H](C(C)C)NC(=O)[C@H](Cc2ccccc2)N(C)C1=O (cyclo([NMeF]V[NMeF]V)) | 6.2 | > 20
6 | CCOC(=O)C1=C(C)NC(C)=C(C(=O)OC)C1c1cccc([N+](=O)[O-])c1 (centres undefined) [NITRENDIPINE] | 0.003 | –
